Key:
[1] = molecular target: yeast α-glucosidase (Saccharomyces cerevisiae, UniProt P53341); test: Yeast α-glucosidase inhibition assay (pNPG substrate, absorbance at 405 nm); assay type: biochemical; conditions: qualitative statement
Experimental: (§1) In this study the inhibition study of both yeast and mammalian α-glucosidase were measured through the earlier reported bioassay method with minor changes ([4]). This test was carried out using the substrate p-nitrophenyl-α-D-glucopyranoside (pNPG), which is hydrolyzed by α-glucosidase to release the product p-nitrophenol, a color agent that can be monitored at 405 nm. For yeast α-glucosidase, mixture contained 20 µL of the enzyme (0.5 unit/mL), 120 µL of 0.1 M phosphate buffer (pH 6.9) and 10 µL of test sample at various concentrations. The mixed solution was incubated in 96-well plates at 37 °C for 15 min. After preincubation the enzymatic reaction was initiated by adding 20 µL of 5 mM pNPG solution in 0.1 M phosphate buffer (pH 6.9) and the reaction mixture was incubated for another 15 min at 37 °C. The reaction was terminated by adding 80 µL of 0.2 M sodium carbonate solution and then absorbance reading was recorded at 405 nm by microplate reader. The reaction system without tested samples was used as control and the system without α-glucosidase was used as blank for correcting the background absorbance. The inhibitory rate of sample on α-glucosidase was calculated by the following formula:
(§2) % Inhibition=control absorbance-sample absorbance/control absorbance×100

[2] = tested on: rat intestinal α-glucosidase; test: Mammalian α-glucosidase inhibition assay (rat intestinal acetone powder, pNPG substrate); assay type: biochemical; conditions: for inhibition of rat intestinal α-glucosidase (in words): qualitative statement; for IC50: rat intestinal α-glucosidase, pNPG, pH 6.9, 37 °C, na: no activity
Experimental: as §1, §2
The mammalian α-glucosidase were prepared from rat intestinal acetone powder (1 g), which was extracted by 25 mL of 0.1 M phosphate buffer (pH 6.9) containing 5 mM EDTA at ambient temperature. After sonication (10 min) and centrifugation (10000×g, 20 min) the obtained supernatant was dialyzed against […] phosphate buffer (pH 6.9) for 24 h. The final supernatant was used for the assay. The mammalian α-glucosidase inhibition test was carried out in the same manner as that of the yeast α-glucosidase.

Chain of yeast α-glucosidase (P53341 whole entry): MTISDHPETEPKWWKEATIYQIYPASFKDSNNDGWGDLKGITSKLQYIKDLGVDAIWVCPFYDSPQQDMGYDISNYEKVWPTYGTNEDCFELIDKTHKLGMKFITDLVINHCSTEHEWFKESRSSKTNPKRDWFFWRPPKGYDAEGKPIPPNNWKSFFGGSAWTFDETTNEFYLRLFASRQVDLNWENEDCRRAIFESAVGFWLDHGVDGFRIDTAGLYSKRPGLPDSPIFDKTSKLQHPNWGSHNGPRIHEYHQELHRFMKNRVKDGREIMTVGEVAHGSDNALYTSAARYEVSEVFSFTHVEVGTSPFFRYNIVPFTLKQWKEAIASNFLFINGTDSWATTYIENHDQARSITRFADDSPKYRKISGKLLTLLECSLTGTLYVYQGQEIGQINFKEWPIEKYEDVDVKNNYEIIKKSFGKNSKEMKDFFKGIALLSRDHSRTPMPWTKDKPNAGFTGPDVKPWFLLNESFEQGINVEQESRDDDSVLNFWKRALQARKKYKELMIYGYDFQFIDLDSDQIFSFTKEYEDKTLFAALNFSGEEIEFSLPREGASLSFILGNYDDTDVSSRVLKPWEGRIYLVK

For `O=C1c2ccccc2C(=O)N1C(Cc1ccccc1)c1nc2ccccc2[nH]1` (stereo not shown) [4c, 2-(1-(1H-benzo(d)imidazol-2-yl)-2-phenylethyl)isoindoline-1,3-dione], the “inhibition of yeast α-glucosidase (in words)” value [1] was “significantly higher inhibitory action than acarbose”, the “inhibition of rat intestinal α-glucosidase (in words)” value [2] was “significantly higher inhibitory action than acarbose” and the IC50 [2] was 48.5 ± 2.3 µM.

With `O=C1c2ccccc2C(=O)N1C(Cc1ccc(O)cc1)c1nc2ccccc2[nH]1` (stereo not shown) [4d, 2-(1-(1H-benzo(d)imidazol-2-yl)-2-(4-hydroxyphenyl)ethyl)isoindoline-1,3-dione] the “inhibition of yeast α-glucosidase (in words)” value [1] was “significantly higher inhibitory action than acarbose”, the “inhibition of rat intestinal α-glucosidase (in words)” value [2] was “significantly higher inhibitory action than acarbose” and the IC50 [2] was 36.7 ± 2.9 µM.

With `O=C1c2ccccc2C(=O)N1CC1=Nc2cccc3cccc(c23)N1` [5a, 2-((1H-perimidin-2-yl)methyl)isoindoline-1,3-dione] the “inhibition of yeast α-glucosidase (in words)” value [1] was “did not exert good inhibition activity” and the “inhibition of rat intestinal α-glucosidase (in words)” value [2] was “did not exert good inhibition activity”.

In the case of `CCC(C)C(C1=Nc2cccc3cccc(c23)N1)N1C(=O)c2ccccc2C1=O` (stereo not shown) [5b, 2-(2-methyl-1-(1H-perimidin-2-yl)butyl)isoindoline-1,3-dione], the “inhibition of yeast α-glucosidase (in words)” value [1] is reported as “did not exert good inhibition activity” and the “inhibition of rat intestinal α-glucosidase (in words)” value [2] is reported as “did not exert good inhibition activity”.

`O=C1c2ccccc2C(=O)N1C(Cc1ccccc1)C1=Nc2cccc3cccc(c23)N1` (stereo not shown) [5c, 2-(1-(1H-perimidin-2-yl)-2-phenylethyl)isoindoline-1,3-dione] was tested, and the “inhibition of yeast α-glucosidase (in words)” value [1] was “significantly higher inhibitory action than acarbose”, the “inhibition of rat intestinal α-glucosidase (in words)” value [2] was “significantly higher inhibitory action than acarbose” and the IC50 [2] was 35.9 ± 2.3 µM.

With `O=C1c2ccccc2C(=O)N1C(Cc1ccc(O)cc1)C1=Nc2cccc3cccc(c23)N1` (stereo not shown) [5d, 2-(2-(4-hydroxyphenyl)-1-(1H-perimidin-2-yl)ethyl)isoindoline-1,3-dione] the “inhibition of yeast α-glucosidase (in words)” value [1] was “significantly higher inhibitory action than acarbose”, the “inhibition of rat intestinal α-glucosidase (in words)” value [2] was “significantly higher inhibitory action than acarbose” and the IC50 [2] was 21.8 ± 1.7 µM.

With `CC(C)CC(C1=Nc2cccc3cccc(c23)N1)N1C(=O)c2ccccc2C1=O` (stereo not shown) [5e, 2-(3-methyl-1-(1H-perimidin-2-yl)butyl)isoindoline-1,3-dione] the “inhibition of yeast α-glucosidase (in words)” value [1] was “did not exert good inhibition activity” and the “inhibition of rat intestinal α-glucosidase (in words)” value [2] was “did not exert good inhibition activity”.

With `C[C@H]1O[C@H](O[C@H]2[C@H](O)[C@@H](O)[C@@H](O[C@H]3[C@H](O)[C@@H](O)C(O)O[C@@H]3CO)O[C@@H]2CO)[C@H](O)[C@@H](O)[C@@H]1N[C@H]1C=C(CO)[C@@H](O)[C@H](O)[C@H]1O` (stereo partly shown) [Acarbose, reference compound] the IC50 [2] was 37.5 ± 1.4 µM.
